Test results taken from patent US6143715A, “Hepatitis C inhibitor peptide analogues” (priority 1998, dated 2000).
Like-named read-outs stand apart in the source and are kept apart here. Starred links: 1 amine or outer side, 2 acyl side, 3 side chain; linkers in the order of their positions; H or OH if unused. Non-standard residues stand in square brackets, D forms with d. Residues, ends and D or L forms follow the SMILES beside them. ξ: configuration not given here. *: point of attachment. NH(1S-phenylethyl) = C[C@H](N*)c1ccccc1; Hyp = O=C(O)[C@@H]1C[C@@H](O)CN1; azaNva = CCCN(N[*:1])C(=O)[*:2]; AzaAla = CN(N[*:1])C(=O)[*:2]; X10 = C=CCN(N[*:1])C(=O)[*:2]; X7 = CCCCCN(N[*:1])C(=O)[*:2]; X2 = CCCN(N*)C(=O)OCc1ccccc1; X5 = CCCN(N*)C(=O)CCc1ccccc1; X6 = CCCC(N*)C(=O)CCc1ccccc1; Nva = CCC[C@H](N)C(=O)O; NHBn = c1ccc(CN*)cc1; ξNva = CCCC(N)C(=O)O; ξAbu = CCC(N)C(=O)O; Bn = c1ccc(C*)cc1; CF3 = FC(F)(F)*

Legend:
HCV = conditions: as described in WO 97/06804; cited from earlier work
[1] = target: porcine pancreatic elastase (Sus scrofa, UniProt P00772); assay: Specificity assay, porcine pancreatic elastase (pNA substrate); type: biochemical
Description: The specificity of the compounds was determined against a variety of serine proteases: human leukocyte elastase, porcine pancreatic elastase and bovine pancreatic α-chymotrypsin and one cysteine protease: human liver cathepsin B. In all cases a 96-well plate format protocol using a calorimetric p-nitroanilide (pNA) substrate specific for each enzyme was used. Each assay included a 1 h enzyme-inhibitor pre-incubation at 30° C. followed by addition of substrate and hydrolysis to ≈30% conversion as measured on a UV Thermomax® microplate reader. Substrate concentrations were kept as low as possible compared to KM to reduce substrate competition. […] The final conditions for each assay were as follows:
A representative example is summarized below for porcine pancreatic elastase:
In a polystyrene flat-bottom 96-well plate were added using a Biomek liquid handler (Beckman):
40 μL of assay buffer (50 mM Tris-HCl pH 8, 50 mM NaCl, 0.1 mM EDTA);
20 μL of enzyme solution (50 mM Tris-HCl pH 8, 50 mM NaCl, 0.1 mM EDTA, 0.02% Tween-20, 40 nM porcine pancreatic elastase); and

human leukocyte elastase = target: T1, human leukocyte elastase (Homo sapiens, UniProt P08246); assay: Specificity assay, human leukocyte elastase (pNA substrate); type: biochemical
T1 sequence (P08246 30-267): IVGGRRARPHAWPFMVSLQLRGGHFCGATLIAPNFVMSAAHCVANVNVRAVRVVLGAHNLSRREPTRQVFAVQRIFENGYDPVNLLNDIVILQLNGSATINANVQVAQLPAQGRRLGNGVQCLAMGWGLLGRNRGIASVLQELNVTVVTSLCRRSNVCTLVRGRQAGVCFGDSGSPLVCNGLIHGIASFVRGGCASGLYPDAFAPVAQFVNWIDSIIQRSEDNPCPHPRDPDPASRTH
Description: The specificity of the compounds was determined against a variety of serine proteases: human leukocyte elastase, porcine pancreatic elastase and bovine pancreatic α-chymotrypsin and one cysteine protease: human liver cathepsin B. In all cases a 96-well plate format protocol using a […] p-nitroanilide (pNA) substrate specific for each enzyme was used. Each assay included a 1 h enzyme-inhibitor pre-incubation at 30° C. followed by addition of substrate and hydrolysis to ≈30% conversion as measured on a UV Thermomax® microplate reader. Substrate concentrations were kept as low as possible compared to KM to reduce substrate competition. […] The final conditions for each assay were as follows:
(§1) 50 mM Tris-HCl pH 8, 0.5 M Na2 SO4, 50 mM NaCl, 0.1 mM EDTA, 3% DMSO, 0.01% Tween-20 with;
All other specificity assays were performed in a similar fashion.
(§2) The percentage of inhibition was calculated using the formula:
(§3) [1-(UVinh -UVblank)/(UVctl -UVblank))]×100

[2] = target: bovine pancreatic α-chymotrypsin (Bos taurus, UniProt P00766, DEL14-15/DEL147-148); assay: Specificity assay, bovine pancreatic α-chymotrypsin (pNA substrate); type: biochemical; conditions: 1 h enzyme-inhibitor pre-incubation at 30° C., Succ-AAPF-pNA
Description: The final conditions for each assay were as follows:
as §1, §2, §3

human liver cathepsin B = human liver cathepsin B (Homo sapiens, UniProt P07858); assay: biochemical
Description: The specificity of the compounds was determined against a variety of serine proteases: human leukocyte elastase, porcine pancreatic elastase and bovine pancreatic α-chymotrypsin and one cysteine protease: human liver cathepsin B. In all cases a 96-well plate format protocol using a calorimetric p-nitroanilide (pNA) substrate specific for each enzyme was used. Each assay included a 1 h enzyme-inhibitor pre-incubation at 30° C. followed by addition of substrate and hydrolysis to ≈30% conversion as measured on a UV Thermomax® microplate reader. Substrate concentrations were kept as low as possible compared to KM to reduce substrate competition.

[3] = target: T2, HCV NS3 protease type 1b/NS4A cofactor peptide (Hepatitis C virus genotype 1b, UniProt P26663); assay: biochemical; set-up: species or system hepatitis C virus (HCV) genotype 1b
T2 construct: recombinant HCV NS3 protease (amino acid 1027 to 1206) was cloned; made in house; host or cells: E. coli BL21(DE3)pLysS
From the text: a) Cloning, expression and purification of the recombinant HCV NS3 protease type lb
Serum from an HCV-infected patient was obtained through an external collaboration (Bernard Willems MD, Hopital St-Luc, Montreal, Canada and Dr. Donald Murphy, Laboratoire de Sante Publique du Quebec, Ste-Anne de Bellevue, Canada). An engineered full-length cDNA template of the HCV genome was constructed from DNA fragments obtained by reverse transcription-PCR (RT-PCR) of serum RNA and using specific primers selected on the basis of homology between other genotype lb strains. […] A DNA fragment encoding the polyprotein precursor (NS3/NS4A/NS4B/NS5A/NS5B) was generated by PCR and introduced into eucaryotic expression vectors.
The NS3 protease expression in E. coli BL21(DE3)pLysS was induced by incubation with 1 mM IPTG for 3 h at 22° C. […] The cells were resuspended in lysis buffer (3.0 mL/g) consisting of 25 mM sodium phosphate, pH 7.5, 10% glycerol (v/v), 1 mM EDTA, 0.01% NP-40 and stored at -80° C. Cells were thawed and homogenized following the addition of 5 mM DTT. Magnesium chloride and DNase were then added to the homogenate at final concentrations of 20 mM and 20 μg/mL respectively. After a 25 min incubation at 4° C., the homogenate was sonicated and centrifuged at 15000× g for 30 min at 4° C. The pH of the supernatant was then adjusted to 6.5 using a 1M sodium phosphate solution.
Briefly, the supernatant from the bacterial extract was loaded on a SP HiTrap column (Pharmacia) previously equilibrated at a flow rate of 2 mL/min in buffer A (50 mM sodium phosphate, pH 6.5, 10% glycerol, 1 mM EDTA, 5 mM DTT, 0.01% NP-40). The column was then washed with buffer A containing 0.15 M NaCl and the protease eluted by applying 10 column volumes of a linear 0.15 to 0.3 M NaCl gradient. NS3 protease-containing fractions were pooled and diluted to a final NaCl concentration of 0.1 M. The enzyme was further purified on a HiTrap Heparin column (Pharmacia) equilibrated in buffer B (25 mM sodium phosphate, pH 7.5, 10% glycerol, 5 mM DTT, 0.01% NP-40). The sample was loaded at a flow rate of 3 mL/min. The column was then washed with buffer B containing 0.15 M NaCl at a flow rate of 1.5 mL/min. Two step washes were performed in the presence of buffer B containing 0.3 or 1M NaCl. […] Finally, the NS3 protease-containing fractions were applied on a Superdex 75 HiLoad 16/60 column (Pharmacia) equilibrated in buffer B containing 0.3 M NaCl.
The enzyme was stored at -80° C. and was thawed on ice and diluted just prior to use.
Recombinant HCV NS3 Protease/NS4A Cofactor Peptide Radiometric Assay
The enzyme was stored at -80° C., thawed on ice and diluted just prior to use in the assay buffer containing the NS4A cofactor peptide.
The substrate used for the NS3 protease/[…] cofactor peptide radiometric assay, DDIVPC-SMSYTW, is cleaved between the cysteine and the serine residues by the enzyme. The sequence DDIVPC-SMSYTW corresponds to the NS5A/NS5B natural cleavage site in which the cysteine residue in […] has been substituted for a proline. […] (molar ratio enzyme: cofactor 1:100) in the absence or presence of inhibitors. The separation of substrate from products is performed by adding avidin-coated agarose beads to the assay mixture followed by filtration.
Assay buffer: 50 mM Tris HCl, pH 7.5, 30% (w/v) glycerol, 1 mg/mL BSA, 1 mM TCEP (TCEP added just prior to use from a 1 M stock solution in water)
Substrate: […], […] final concentration (from a 2 mM stock solution in DMSO stored at -20° C. to avoid oxidation).

NS3 protease = NS3 protease (Hepatitis C virus genotype 1b, UniProt P26663); assay: Inhibition of NS3 protease by N-terminal cleavage product; type: biochemical; conditions: N-terminal cleavage product of an analogue of a natural substrate
[4] = 1 h enzyme-inhibitor pre-incubation at 30° C., Succ-AAV-pNA
[5] = 1 h enzyme-inhibitor pre-incubation at 30° C., Succ-AAA-pNA

Sequence of porcine pancreatic elastase (P00772 27-266): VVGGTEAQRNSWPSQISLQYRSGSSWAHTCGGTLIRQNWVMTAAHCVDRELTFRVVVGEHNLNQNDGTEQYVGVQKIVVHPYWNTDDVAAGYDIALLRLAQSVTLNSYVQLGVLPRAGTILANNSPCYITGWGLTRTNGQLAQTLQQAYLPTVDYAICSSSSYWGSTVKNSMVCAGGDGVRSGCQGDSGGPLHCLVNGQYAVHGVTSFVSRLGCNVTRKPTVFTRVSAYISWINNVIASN
T2 sequence (P26663 1027-1206, other chains not shown): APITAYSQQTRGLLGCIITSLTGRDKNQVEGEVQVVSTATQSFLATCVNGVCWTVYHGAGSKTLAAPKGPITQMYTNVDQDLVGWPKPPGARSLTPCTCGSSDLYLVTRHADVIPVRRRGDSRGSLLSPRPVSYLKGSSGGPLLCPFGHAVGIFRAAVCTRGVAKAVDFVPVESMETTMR
Sequence of NS3 protease (P26663 1027-1206): as the sequence (P26663 1027-1206, other chains not shown) above

Nc1ccn([C@@H]2CS[C@H](CO)O2)c(=O)n1 (single isomer, unassigned) [3TC, (-) enantiomer of the nucleoside analogue cytosine-1,3-oxathiolane]
active against HCV (HCV): active against HCV

CCCC(NC(=O)[C@@H]1C[C@@H](OCc2ccccc2)CN1C(=O)[C@@H](NC(=O)[C@@H](NC(=O)[C@@H](CCC(=O)O)NC(=O)[C@H](CC(=O)O)NC(C)=O)[C@@H](C)CC)C(C)C)P(=O)(Oc1ccccc1)Oc1ccccc1 (single isomer, unassigned) [Compound 301]
IC50 [1]: < 0.6 µM
IC50 (human leukocyte elastase): < 0.6 µM
IC50 [2]: 3 µM
IC50 (human liver cathepsin B): > 300 µM
IC50 ([3]; IC50: concentration required to obtain 50% inhibition in the NS3 protease/NS4A cofactor peptide radiometric assay, enzyme:cofactor 1:100, 40 min at 23° C.): 0.029 µM

CCC(NC(=O)[C@@H]1C[C@@H](OCc2ccccc2)CN1C(=O)[C@@H](NC(=O)[C@@H](NC(=O)[C@@H](CCC(=O)O)NC(=O)[C@H](CC(=O)O)NC(C)=O)[C@@H](C)CC)C(C)C)C(=O)C(F)(F)F (stereo partly drawn) [Compound 101] (Ac-D[dE]IV[Hyp](Bn)[ξAbu]-CF3)
IC50 (human leukocyte elastase; [4]): < 1.2 µM
IC50 [3]: 9.4 µM

CCCC(C=O)NC(=O)[C@@H]1C[C@@H](OCc2ccccc2)CN1C(=O)[C@@H](NC(=O)[C@@H](NC(=O)[C@@H](CCC(=O)O)NC(=O)[C@H](CC(=O)O)NC(C)=O)[C@@H](C)CC)C(C)C (stereo partly drawn) [Compound 104] (Ac-D[dE]IV[Hyp](Bn)[ξNva]-aldehyde)
IC50 [1, 5]: 8 µM
IC50 (human leukocyte elastase; [4]): 7 µM
IC50 [2]: 8 µM
IC50 [3]: 0.14 µM

CCCC(NC(=O)[C@@H]1C[C@@H](OCc2ccccc2)CN1C(=O)[C@@H](NC(=O)[C@@H](NC(=O)[C@@H](CCC(=O)O)NC(=O)[C@H](CC(=O)O)NC(C)=O)[C@@H](C)CC)C(C)C)C(=O)CCc1ccccc1 (stereo partly drawn) [Compound 106] (Ac-D[dE]IV[Hyp](Bn)-X6)
IC50 (human leukocyte elastase): 16 µM
IC50 [3]: 5.4 µM

CCC[C@H](NC(=O)[C@@H]1C[C@@H](OCc2ccccc2)CN1C(=O)[C@@H](NC(=O)[C@@H](NC(=O)[C@@H](CCC(=O)O)NC(=O)[C@H](CC(=O)O)NC(C)=O)[C@@H](C)CC)C(C)C)C(=O)N[C@@H](C)c1ccccc1 [Compound 108] (Ac-D[dE]IV[Hyp](Bn)[Nva]-{NH(1S-phenylethyl)})
IC50 [1, 5]: > 300 µM
IC50 (human leukocyte elastase; [4]): 3 µM
IC50 [2]: > 300 µM
IC50 [3]: 0.71 µM

CCCC(NC(=O)[C@@H]1C[C@@H](OCc2ccccc2)CN1C(=O)[C@@H](NC(=O)[C@@H](NC(C)=O)C1CCCCC1)C(C)C)C(=O)C(=O)NCc1ccccc1 (stereo partly drawn) [Compound 109]
IC50 (human leukocyte elastase; [4]): 2 µM
IC50 [3]: 23 µM

CCCN(NC(=O)[C@@H]1C[C@@H](OCc2ccccc2)CN1C(=O)[C@@H](NC(=O)[C@@H](NC(=O)[C@@H](CCC(=O)O)NC(=O)[C@H](CC(=O)O)NC(C)=O)[C@@H](C)CC)C(C)C)C(=O)NCC(=O)OCC [Compound 201] (Ac-D[dE]IV[Hyp](Bn)[azaNva]G-OEt)
IC50 [1, 5]: 168 µM
IC50 (human leukocyte elastase; [4]): 27.4 µM
IC50 [3]: 3.9 µM

CCCN(NC(=O)[C@@H]1C[C@@H](OCc2ccccc2)CN1C(=O)[C@@H](NC(=O)[C@@H](NC(=O)[C@@H](CCC(=O)O)NC(=O)[C@H](CC(=O)O)NC(C)=O)[C@@H](C)CC)C(C)C)C(=O)CCc1ccccc1 [Compound 202] (Ac-D[dE]IV[Hyp](Bn)-X5)
IC50 (human leukocyte elastase; [4]): 5.5 µM
IC50 [3]: 0.63 µM

CCCN(NC(=O)[C@@H]1C[C@@H](OCc2ccccc2)CN1C(=O)[C@@H](NC(=O)[C@@H](NC(=O)[C@@H](CCC(=O)O)NC(=O)[C@H](CC(=O)O)NC(C)=O)[C@@H](C)CC)C(C)C)C(=O)OCc1ccccc1 [Compound 206] (Ac-D[dE]IV[Hyp](Bn)-X2)
IC50 [1, 5]: < 0.6 µM
IC50 (human leukocyte elastase; [4]): < 0.6 µM
IC50 [3]: 0.79 µM

CCCN(NC(=O)[C@@H]1C[C@@H](OCc2ccccc2)CN1C(=O)[C@@H](NC(=O)[C@@H](NC(C)=O)C1CCCCC1)C(C)C)C(=O)N[C@@H](C)c1ccccc1 [Compound 215]
IC50 (human leukocyte elastase; [4]): 5 µM
IC50 [3]: 45 µM

CCCCCN(NC(=O)[C@@H]1C[C@@H](OCc2ccccc2)CN1C(=O)[C@@H](NC(=O)[C@@H](NC(=O)[C@@H](CCC(=O)O)NC(=O)[C@H](CC(=O)O)NC(C)=O)[C@@H](C)CC)C(C)C)C(=O)N[C@@H](C)c1ccccc1 [Compound 219] (Ac-D[dE]IV[Hyp](Bn)[X7]-{NH(1S-phenylethyl)})
IC50 (human leukocyte elastase; [4]): 151 µM
IC50 [3]: 0.43 µM

CC[C@H](C)[C@H](NC(=O)[C@@H](CCC(=O)O)NC(=O)[C@H](CC(=O)O)NC(C)=O)C(=O)N[C@H](C(=O)N1C[C@H](OCc2ccccc2)C[C@H]1C(=O)NN(C)C(=O)N[C@@H](C)c1ccccc1)C(C)C [Compound 221] (Ac-D[dE]IV[Hyp](Bn)[AzaAla]-{NH(1S-phenylethyl)})
IC50 (human leukocyte elastase; [4]): 168 µM
IC50 [3]: 0.52 µM

C=CCN(NC(=O)[C@@H]1C[C@@H](OCc2ccccc2)CN1C(=O)[C@@H](NC(=O)[C@@H](NC(=O)[C@@H](CCC(=O)O)NC(=O)[C@H](CC(=O)O)NC(C)=O)[C@@H](C)CC)C(C)C)C(=O)NCc1ccccc1 [Compound 234] (Ac-D[dE]IV[Hyp](Bn)[X10]-NHBn)
IC50 [3]: 3.7 µM

Ac-DDIVPC-OH [Ac-D-D-I-V-P-C-OH]
inhibitory to the NS3 protease (NS3 protease): inhibitory
